“And” between values parts separate entries of the source, which are not always exact repeats. Equal values may be shown once. Read-outs that look alike come from different tables or passages of the source.

The subject of one test is S. aureus DSMZ 20231. As to the kind of experiment: Syto9 microtiter plate assay: adhesion of bacteria to coated polyester fabric samples. Type of test: cell-based, Staphylococcus aureus. The settings on record: for Reduction in adhered bacteria [%] S. aureus: polyester fabric, application concentration 0.1 wt %, commercial product applied directly by padding, relative to uncoated fabric; for Reduction in adhered bacteria [%]: S. aureus, polyester. Here is the method: (§1) Circular fabric samples with a diameter of 0.6 cm were punched from coated and uncoated cotton and polyester fabrics. The fabric samples were fixed to a microtiter plate. The fabric samples were washed with acetone and sterilized with UV light for 60 minutes.
(§2) The strains were coated fresh from glycerol bacterial cultures onto tryptic soy agar (TSA). Incubation took place overnight at 33° C. The nutrient medium prepared was a tryptic soy broth (TSB), with 30% of the amount recommended by the manufacturer, supplemented with 0.25% of glucose. […] The nutrient medium was inoculated with the bacterial cultures and after inoculation was cultivated overnight at 37° C. and 160 rpm.
(§3) The resulting overnight cultures were centrifuged at 8500 g for 15 minutes and washed with 50 ml of isotonic saline solution (0.9 wt %). Bacterial suspensions in isotonic saline solutions were prepared. The optical density of the various bacterial suspensions was determined at 595 nm and adjusted to a level of about 1.2.
(§4) 50 μl of the final microorganism suspension in isotonic saline solution (0.9 wt %) prepared as described under 2.2 were added to the coated and uncoated fabric samples fixed on the microtiter plate (see 2.1). The microtiter plates were closed and sealed off with Parafilm. The microtiter plates were placed in an antievaporation box and incubated at 33° C. for 2 h and at 40 rpm. The expected colony-forming unit count (CFU) of the inoculum at the start was 10^6-10^7 CFU/ml.
After the biofilm had formed, the planctonic cells were removed and used as a sample for determining the optical density at 595 nm. For this purpose, the samples were made up to a volume of 150 μl, and 100 μl were withdrawn for the optical density determination in a photometer. The optical density of the corresponding control solution with sterile isotonic saline solution was subtracted from the optical densities found. Through the determination of the planctonic cells after the formation of biofilm, the amount of bacteria available for adhesion was monitored.
(§5) The fabric samples and the resulting biofilm were washed three times with 200 to 300 μl of isotonic saline solution.
(§6) The fabric samples obtained under 2.4 (after formation of biofilm) were placed together with 100 μl of isotonic saline solution into wells of a 96-well microtiter plate.
(§7) Investigations into the removal of the adhered microorganisms from the fabric surfaces were carried out with vortexing, ultrasound, with enzymatic treatment, or with combinations thereof. Treatment in the vortex amounted to 5 minutes and was performed horizontally. The ultrasound treatment was carried out in an ultrasound bath for 5 minutes. For the enzymatic removal, the fabric samples were treated with enzymes, such as trypsin or a mixture of different enzymes, for example, during incubation at 37° C. for 1 hour.
(§8) Following removal of the adhered bacteria, the fabric samples were removed from the microtiter plates.
(§9) The number of removed bacteria in the resulting suspension was determined by staining with Syto9 and fluorescence measurement (fluorescence filter with excitation at 485/20 nm and emission at 528/20 nm) or by staining with BacTiterGlo and bioluminescence measurement. Furthermore, it is possible to determine the number of adhered and removed microorganisms by means of protein assay (e.g., BCA assay, Bradford Assay) or optical density proliferation assay.
The relative variables (e.g., fluorescence units (RFU)) concerning the coated and uncoated fabrics were compared, allowing the reduction in adhered bacteria in % to be determined in accordance with the following formula: Reduction in adhered bacteria[%]=[(RFUuc−RFUuc)/RFUuc]*100 where • RFUuc=relative fluorescence units of the removed bacteria of the uncoated substrate • RFUc=relative fluorescence units of the removed bacteria of the coated substrate […]

The subject of a further test is P. aeruginosa DSMZ 1117. Type of test: cell-based, Pseudomonas aeruginosa. The settings on record: for Reduction in adhered bacteria [%] P. aeruginosa: polyester fabric, application concentration 0.1 wt %, commercial product applied directly by padding, relative to uncoated fabric; for Reduction in adhered bacteria [%]: P. aeruginosa, polyester. As for the experimental part: as §1, §2, §3, §4
After the biofilm had formed, the planctonic cells were removed and used as a sample for determining the optical density at 595 nm. For this purpose, the samples were made up to a volume of 150 μl, and 100 μl were withdrawn for the optical density determination in a photometer. […] Through the determination of the planctonic cells after the formation of biofilm, the amount of bacteria available for adhesion was monitored.
as §5, §6, §7, §8, §9
The relative variables (e.g., fluorescence units (RFU)) concerning the coated and uncoated fabrics were compared, allowing the reduction in adhered bacteria in % to be determined in accordance with the following formula: Reduction in adhered bacteria[%]=[(RFUuc−RFUuc)/RFUuc]*100 where • RFUuc=relative fluorescence units of the removed bacteria of the uncoated substrate • RFUc=relative fluorescence units of the removed bacteria of the coated substrate
The commercial products described in example 1 were applied directly by a padding method to polyester fabric samples.
Bacterial adhesion to the polyester fabric samples was investigated using the microtiter plate Syto9 assay, as described in example 2.

Test [1] has as its system Staphylococcus aureus. Type of test: cell-based. The settings on record: for Reduction in cell count relative to control [%] S. aureus: coated glass slide vs uncoated glass control K; for Cell count [1/cm^2] S. aureus: glass slide coated from 0.1% strength solution, bacterial suspension 10^9 microbes/ml, 30 measuring windows. From the text: (§10) Silane derivatives S1, S3, S4 and S5 as identified above in example 1 were used to produce coatings on glass slides. As a control (comparison sample) K, an uncoated glass slide cleaned with isopropanol was used.
(§11) For the coating of the slides they were immersed for 60 seconds into a 0.1% strength solution of the corresponding silane derivative in ethanol/water as solvent with a water fraction of 5%. The solutions had been adjusted with acetic acid beforehand to a pH in the range from 4 to 5. The wetted slides were subsequently dried at 160° C. for 1 hour.
(§12) The slides wetted with the bacterial suspension were analyzed by microscope to determine the adhering bacteria. […] The fluorescent dye used was DAPI (4′,6-diamidine-2-phenylindole), which binds to DNA and fluoresces under UV excitation. In order to determine the adhesion characteristics, the cell counts per cm^2 were ascertained in 30 measuring windows, and the adhesion pattern was evaluated. Cell attachment was evaluated on an Olympus IX 51 using the Labflow AnalySIS image processing program.
(§13) Bacterial suspensions produced and used were suspensions of test cultures of the strains Staphylococcus aureus and Escherichia coli. The concentration of the bacterial suspension was 10^9 microbes/ml.

The test system of another test is Escherichia coli. The test is described as follows: Bacterial adhesion to coated glass slides via fluorescence microscopy (DAPI). Type of test: cell-based. To be noted: for Reduction in cell count relative to control [%] E. coli: coated glass slide vs uncoated glass control K; for Cell count [1/cm^2] E. coli: glass slide coated from 0.1% strength solution, bacterial suspension 10^9 microbes/ml, 30 measuring windows.
Source text: as §10, §11, §12, §13

In test [2] the test system is Staphylococcus aureus. The test is described as follows: Antimicrobial activity of coated polyester fabric samples as per JIS L 1902. It counts as cell-based. The settings on record: for Antimicrobial activity[log] Unwashed: 18 hours at 37° C. Here is the method: The procedure here is that the fabric sample was inoculated with a defined amount of a microbial suspension (inoculum). Test specimens with a weight of approximately 0.4 g were investigated in a triplicate determination.
The inoculated fabric sample was incubated in a closed system at 37° C. over a period of 18 hours. Following incubation, the bacteria of a defined amount of a dilution solution were recorded. The difference in the bacterial count of the fabric sample at 0 hours in comparison to the fabric sample after 18 hours served as a basis for evaluation. The antimicrobial activity is reported as a logarithmic or percentage value. Here, a reduction in the microbe count of 0% corresponds to inadequate antimicrobial action, a microbe reduction in the range from 0.1 to less than 90% to an inadequate antibacterial action, and a microbe reduction of greater than 90% to a good antibacterial action.

Where [3] appears, read: coating concentration 0.001 %, wash pretreatment (A) unwashed.
Setting [4] is: coating concentration 0.001 %, wash pretreatment (B) washed twice at 30° C. only with water.
Setting [5] is: coating concentration 0.01 %, wash pretreatment (A) unwashed.
Where [6] appears, read: coating concentration 0.01 %, wash pretreatment (B) washed twice at 30° C. only with water.
The mark [7] stands for this setting: coating concentration 0.01 %, wash pretreatment (C) washed once at 30° C. EN ISO 6330 method 8A with ECE B detergent.
The mark [8] stands for this setting: coating concentration 0.1 %, wash pretreatment (A) unwashed.
Where [9] appears, read: coating concentration 0.1 %, wash pretreatment (B) washed twice at 30° C. only with water.
Setting [10] is: coating concentration 0.1 %, wash pretreatment (C) washed once at 30° C. EN ISO 6330 method 8A with ECE B detergent.
[11] abbreviates: coating concentration 0.001 % based on fabric.
Setting [12] is: coating concentration 0.01 % based on fabric.
The mark [13] stands for this setting: coating concentration 0.1 % based on fabric.

As to `CCO[Si](CCCNC(=O)[C@H](O)[C@@H](O)[C@H](O)[C@H](O)CO)(OCC)OCC` [S4, N-(triethoxysilylpropyl)gluconamide], the “Reduction in adhered bacteria [%] S. aureus” value in the test with S. aureus DSMZ 20231 was 58%. The “Reduction in adhered bacteria [%] P. aeruginosa” value (“Reduction … [%] P. aeruginosa” for short) with P. aeruginosa DSMZ 1117 stood at 57%. In the test with Staphylococcus aureus [1] (S. aureus on coated glass surface), the “adhesion pattern on microscopic inspection” value was “only a few grapelike assemblies of S. aureus”. Further, in the test with Staphylococcus aureus [1], the “Reduction in cell count relative to control [%] S. aureus” value is 16% and 17%; the “Cell count [1/cm^2] S. aureus” value is recorded as 383 000 1/cm^2. Moreover, in the test with Escherichia coli, the “Reduction in cell count relative to control [%] E. coli” value was determined as 51% and the “Cell count [1/cm^2] E. coli” value is reported as 389 000 1/cm^2.
Turning to “methoxy(polyethyleneoxy)propyltrimethoxysilane (9-12 EO units) [S1]”, in the test with S. aureus DSMZ 20231, the “Reduction in adhered bacteria [%] S. aureus” value was 34%. Further, the “Reduction … [%] P. aeruginosa” value with P. aeruginosa DSMZ 1117 came to 41%. Further, in the test on Staphylococcus aureus [1], the “Reduction in cell count relative to control [%] S. aureus” value is 76% and the “Cell count [1/cm^2] S. aureus” value is listed as 110 000 1/cm^2. Also, the “adhesion of S. aureus to coated glass, assessment in words” value in the test with Staphylococcus aureus [1] (coated glass slides) was “Very good results”. Also, the “adhesion of bacteria to coated glass, assessment in words” value in the test with Escherichia coli (both series of tests (S. aureus and E. coli), compared with glass control) is “very good results”. For the same compound, in the test on Escherichia coli, the “Reduction in cell count relative to control [%] E. coli” value is listed as 63% and the “Cell count [1/cm^2] E. coli” value is listed as 296 000 1/cm^2.
Regarding “bis[3-(triethoxysilylpropoxy)-2-hydroxypropoxy)]polyethylene oxide (5-10 EO units) [S2]”, the “Reduction in adhered bacteria [%]” value in the test on S. aureus DSMZ 20231 (setting [3]) came to 30%; with S. aureus DSMZ 20231 (setting [4]) it was 52%; in the test on S. aureus DSMZ 20231 (setting [5]), 71%; in the test on S. aureus DSMZ 20231 (setting [6]), 31%; in the test on S. aureus DSMZ 20231 (setting [7]), 66%; in the test with S. aureus DSMZ 20231 (setting [8]) it was 55%. The “Reduction in adhered bacteria [%]” value is recorded as 48% in the test on S. aureus DSMZ 20231 (setting [9]); 49% in the test with S. aureus DSMZ 20231 (setting [10]); 62% with P. aeruginosa DSMZ 1117 (setting [3]); 87% in the test with P. aeruginosa DSMZ 1117 (setting [4]); 55% in the test on P. aeruginosa DSMZ 1117 (coating concentration 0.001 %, wash pretreatment (C) washed once at 30° C. EN ISO 6330 method 8A with ECE B detergent); 79% with P. aeruginosa DSMZ 1117 (setting [5]). The “Reduction in adhered bacteria [%]” value in the test on P. aeruginosa DSMZ 1117 (setting [6]) stood at 36%; in the test on P. aeruginosa DSMZ 1117 (setting [7]), 75%; with P. aeruginosa DSMZ 1117 (setting [8]), 68%; with P. aeruginosa DSMZ 1117 (setting [9]) it was 45%; with P. aeruginosa DSMZ 1117 (setting [10]), 75%. For the same compound, the “Reduction in adhered bacteria [%] S. aureus” value in the test with S. aureus DSMZ 20231 was found to be 85%. Besides, the “Reduction … [%] P. aeruginosa” value in the test on P. aeruginosa DSMZ 1117 is recorded as 64%. Moreover, the “Antimicrobial activity[log] Unwashed” value with Staphylococcus aureus [2] (setting [11]) was 0.2 log; with Staphylococcus aureus [2] (setting [12]), −0.4 log; in the test on Staphylococcus aureus [2] (setting [13]) it was −0.2 log. Also, the “Antimicrobial activity[log] Washed once at 30° C., without detergent” value is listed as −0.1 log in the test with Staphylococcus aureus [2] (setting [11]), −0.6 log with Staphylococcus aureus [2] (setting [12]) and −0.4 log in the test with Staphylococcus aureus [2] (setting [13]). Also, the results for the “Antimicrobial activity[log] Washed twice with water” value in the test with Staphylococcus aureus [2] (setting [11]), in the test with Staphylococcus aureus [2] (setting [12]) and with Staphylococcus aureus [2] (setting [13]) were 0.1 log, 0.1 log and 0.00 log, respectively.

The record behind these values is patent US10132029B2, “Method for reducing adhesion of microorganisms to fabrics” (priority 2013, dated 2018).
